According to patent publication US20070020183A1, “Perfluoroalkyl-containing complexes, process for their production as well as their use” (priority 2005, published 2007):

Legend:
[1] = Relaxivity in water (NMR pulse spectrometer Minispec PC 20); type: physicochemical; details: 40° C., 0.47 T
Protocol: The T1 and T2 relaxation times of water and plasma (from cows) with increasing concentrations of the gadolinium complexes (I-XIII) contained therein were determined at 40° C. with use of an NMR pulse spectrometer (Minispec PC 20) at 0.47 T, and the relaxivity was determined.

mice = test: Acute toxicity after one-time intravenous administration in mice; type: in vivo; details: one-time i.v., observation period of 7 days, determined preliminarily
Protocol: After intravenous administration of the gadolinium complexes (I-X) in mice (n=3; rate of injection: 2 ml/min), the acute systemic compatibility (LD50) was determined preliminarily. In each case, several dosages with an observation period of 7 days were examined. The acute toxicities that are to be expected can be seen in Table 1.

[2] = Excretion after intravenous administration in rats (ICP-AES); type: in vivo; details: i.v., 50 μmol of total gadolinium/kg of body weight, 14 days after administration
Excerpt: After intravenous administration of 50 μmol of total gadolinium/kg of body weight of the gadolinium complexes (I-X) in rats (n=3), the metal content was l determined in fractions up to 14 days after administration by means of atomic emission spectrometry (ICP-AES) in the excretion media of urine and feces, as well as in the body (the rest of the body).

[3] = Plasma kinetics after intravenous administration in rats (ICP-AES); type: in vivo; details: i.v., 50 μmol of total gadolinium/kg of body weight
Protocol: After intravenous administration of 50 μmol of total gadolinium/kg of body weight of the gadolinium complexes (I-X) in rats (n=3), blood samples were taken via a catheter in the common carotid artery at different points in time ([…] to 24 hours p.i.), the metal content was determined by means of atomic emission spectrometry (ICP-AES) and converted to plasma values via a conversion factor (0.625). The elimination half-life was calculated by means of special software (WinNonlin) from the plasma concentrations.

arteriosclerotic plaque = test: MRT visualization of arteriosclerotic plaque; type: in vivo, Watanabe rabbits (WHHL rabbits); details: WHHL rabbits, i.v. 50 μmol or 100 μmol of Gd/kg, 6 or 24 hours, T1-weighted IR-TFL; not in vascular wall of healthy control animals
Protocol: The pictures of FIG. 2 show MR images of the aorta 6 or 24 hours after intravenous administration of 50 μmol or 100 μmol of Gd/kg of body weight of gadolinium complex I (title substance of Example 1f), gadolinium complex IV (title substance of Example 11e), and gadolinium complex VIII (title substance of Example 16c) in Watanabe rabbits (WHHL rabbits; genetically-induced arteriosclerosis) and in control animals without arteriosclerosis (white New Zealands). […] The localization of the plaque, especially in the aortic arch as well as in the vascular passages, was confirmed by means of Sudan-3 staining. With this test, the suitability of the compounds according to the invention as markers for arteriosclerotic plaque could be shown.

[4] = test system: iliac lymph nodes and i.m.-implanted VX2 tumors; test: MRT visualization of lymph node metastases and primary tumors in VX2-tumor-carrying rabbits; type: in vivo; details: rabbits with VX2 tumors, i.v. 50 μmol of Gd/kg
Protocol: The pictures of FIG. 1 show MR images of iliac lymph nodes precontrast as well as up to 24 hours after intravenous administration of 50 μmol of Gd/kg of body weight of gadolinium complex VIII (title substance of Example 16c) in rabbits with i.m.-implanted VX2 tumors. […] Zones where there was no signal rise within the lymph node were diagnosed as metastases and confirmed histologically (H/E staining of the lymph node sections).
At later times (24 hours p.i.), this enhancement also propagates toward the center of the tumor.

SMILES: COCCN(CCC(F)(F)C(F)(F)C(F)(F)C(F)(F)C(F)(F)C(F)(F)C(F)(F)C(F)(F)F)C(=O)[C@H](CCCCNC(=O)CNC(=O)C(C)N1CCN(CC(=O)[O-])CCN(CC(=O)[O-])CCN(CC(=O)[O-])CC1)NC(=O)CO[C@H]1O[C@H](CO)[C@@H](O)[C@H](O)[C@@H]1O.[Gd+3] (stereo partly drawn) [Gadolinium complex V, Gadolinium complex of 6-N-[1,4,7-tris-(carboxylatomethyl)-1,4,7,10-tetraazacyclododecane-10-N-(pentanoyl-3-aza-4-oxo-5-methyl-5-yl)]-2-N-(1-O-α-d-carbonylmethylmannopyranose)-L-lysine-N-(2-methoxyethyl)-N-(1H,1H,2H,2H-perfluorodecyl)-amide]
- Relaxivity R1(w) [1]: R1(w): 18.3 l/(mmol * s)
- LD50 Mouse (mice): 15 mmol/kg
- Body Retention 14 days [2]: 0.0%
- Elimination Half-Life of Blood [3]: 6.7 h
- Gd Content of Blood 24 Hours p.i. [3]: 2.1%

SMILES: CC(C(=O)NCC(=O)N[C@@H](CCCCNC(=O)CO)C(=O)NCCCC(F)(F)C(F)(F)C(F)(F)C(F)(F)C(F)(F)C(F)(F)C(F)(F)C(F)(F)F)N1CCN(CC(=O)[O-])CCN(CC(=O)[O-])CCN(CC(=O)[O-])CC1.[Gd+3] (stereo partly drawn) [Gadolinium complex IX, Gadolinium complex of 2-N-[1,4,7-tris-(carboxylatomethyl)-1,4,7,10-tetraazacyclododecane-10-N-(pentanoyl-3-aza-4-oxo-5-methyl-5-yl)]-6-N-(2-hydroxyacetyl)-L-lysine-[(1H,1H,2H,2H-perfluorodecyl)-methyl]-amide]
- Relaxivity R1(w) [1]: R1(w): 18.8 l/(mmol * s)
- LD50 Mouse (mice): >10 mmol/kg
- Body Retention 14 days [2]: 0.2%
- Elimination Half-Life of Blood [3]: 4.3 h
- Gd Content of Blood 24 Hours p.i. [3]: 0.5%

SMILES: CC(C(=O)NCC(=O)NCCCC[C@H](NC(=O)COCC(CO)(CO)CO)C(=O)NCCCC(F)(F)C(F)(F)C(F)(F)C(F)(F)C(F)(F)C(F)(F)C(F)(F)C(F)(F)F)N1CCN(CC(=O)[O-])CCN(CC(=O)[O-])CCN(CC(=O)[O-])CC1.[Gd+3] (stereo partly drawn) [Gadolinium complex VI, Gadolinium complex of 6-N-[1,4,7-tris-(carboxylatomethyl)-1,4,7,10-tetraazacyclododecane-10-N-(pentanoyl-3-aza-4-oxo-5-methyl-5-yl)]-2-N-[(3-hydroxy-2,2-dihydroxymethylpropoxy)-acetyl]-L-lysine-[(1H,1H,2H,2H-perfluorodecyl)-methyl]-amide]
- Relaxivity R1(w) [1]: R1(w): 16.9 l/(mmol * s)
- LD50 Mouse (mice): >10 mmol/kg
- Body Retention 14 days [2]: 0.0%
- Elimination Half-Life of Blood [3]: 7.7 h
- Gd Content of Blood 24 Hours p.i. [3]: 2.6%

SMILES: COCCN(CCOCCC(F)(F)C(F)(F)C(F)(F)C(F)(F)C(F)(F)C(F)(F)C(F)(F)C(F)(F)F)C(=O)[C@H](CCCCNC(=O)CNC(=O)C(C)N1CCN(CC(=O)[O-])CCN(CC(=O)[O-])CCN(CC(=O)[O-])CC1)NC(=O)CO[C@H]1O[C@H](CO)[C@@H](O)[C@H](O)[C@@H]1O.[Gd+3] (stereo partly drawn) [Gadolinium complex IV, Gadolinium complex of 6-N-[1,4,7-tris-(carboxylatomethyl)-1,4,7,10-tetraazacyclododecane-10-N-(pentanoyl-3-aza-4-oxo-5-methyl-5-yl)]-2-N-(1-O-α-d-carbonylmethylmannopyranose)-L-lysine-N-(2-methoxyethyl)-N-(1H,1H,2H,2H,4H,4H,5H,5H-3-oxa-perfluorotridecyl)-amide]
- Relaxivity R1(w) [1]: R1(w): 16.6 l/(mmol * s)
- LD50 Mouse (mice): ≧15 mmol/kg
- Body Retention 14 days [2]: 2.6%
- Elimination Half-Life of Blood [3]: 5.3 h
- Gd Content of Blood 24 Hours p.i. [3]: 1.8%
- MR signal in the arteriosclerotic plaque (arteriosclerotic plaque): strong signal rise

SMILES: CC(C(=O)NCC(=O)NCCCC[C@H](NC(=O)CO[C@H]1O[C@H](CO)[C@@H](O)[C@H](O)[C@@H]1O)C(=O)NCCCC(F)(F)C(F)(F)C(F)(F)C(F)(F)C(F)(F)C(F)(F)F)N1CCN(CC(=O)[O-])CCN(CC(=O)[O-])CCN(CC(=O)[O-])CC1.[Gd+3] (stereo partly drawn) [Gadolinium complex II, Gadolinium complex of 6-N-[1,4,7-tris-(carboxylatomethyl)-1,4,7,10-tetraazacyclododecane-10-N-(pentanoyl-3-aza-4-oxo-5-methyl-5-yl)]-2-N-(1-O-α-d-carbonylmethylmannopyranose)-L-lysine-[(1H,1H,2H,2H-perfluorooctyl)-methyl]-amide]
- Relaxivity R1(w) [1]: R1(w): 5.7 l/(mmol * s)
- LD50 Mouse (mice): 10 mmol/kg
- Body Retention 14 days [2]: 0.0%
- Elimination Half-Life of Blood [3]: 0.9 hour^ hours
- Gd Content of Blood 24 Hours p.i. [3]: 0.0%

SMILES: COC[C@H]1O[C@H](OCC(=O)NC(CCCCNC(=O)CNC(=O)C(C)N2CCN(CC(=O)[O-])CCN(CC(=O)[O-])CCN(CC(=O)[O-])CC2)C(=O)N(C)CCC(F)(F)C(F)(F)C(F)(F)C(F)(F)C(F)(F)C(F)(F)C(F)(F)C(F)(F)F)[C@@H](OC)[C@@H](OC)[C@@H]1OC.[Gd+3] (stereo partly drawn) [Gadolinium complex VII, Gadolinium complex of 6-N-[1,4,7-tris-(carboxylatomethyl)-1,4,7,10-tetraazacyclododecane-10-N-(pentanoyl-3-aza-4-oxo-5-methyl-5-yl)]-2-N-[1-O-α-d-carbonylmethyl-(2,3,4,6-tetra-O-methyl)mannopyranose]-L-lysine-[(1H,1H,2H,2H-perfluorodecyl)-methyl]-amide]
- Relaxivity R1(w) [1]: R1(w): 14.7 l/(mmol * s)
- LD50 Mouse (mice): ≦15 mmol/kg
- Body Retention 14 days [2]: 5.4%
- Elimination Half-Life of Blood [3]: 5.4 h
- Gd Content of Blood 24 Hours p.i. [3]: 1.2%

SMILES: CC(C(=O)NCC(=O)NCCCC[C@H](NC(=O)CO[C@H]1O[C@H](CO)[C@@H](O)[C@H](O)[C@@H]1O)C(=O)NCCCOCCC(F)(F)C(F)(F)C(F)(F)C(F)(F)C(F)(F)C(F)(F)C(F)(F)C(F)(F)F)N1CCN(CC(=O)[O-])CCN(CC(=O)[O-])CCN(CC(=O)[O-])CC1.[Gd+3] (stereo partly drawn) [Gadolinium complex III, Gadolinium complex of 6-N-[1,4,7-tris-(carboxylatomethyl)-1,4,7,10-tetraazacyclododecane-10-N-(pentanoyl-3-aza-4-oxo-5-methyl-5-yl)]-2-N-(1-O-α-d-carbonylmethylmannopyranose)-L-lysine-[(1H,1H,2H,2H,4H,4H,5H,5H-3-oxa-perfluorotridecyl)-methyl]-amide]
- Relaxivity R1(w) [1]: R1(w): 17.8 l/(mmol * s)
- LD50 Mouse (mice): ≧10 mmol/kg
- Body Retention 14 days [2]: 1.5%
- Elimination Half-Life of Blood [3]: 6.2 h
- Gd Content of Blood 24 Hours p.i. [3]: 1.6%

SMILES: CC(C(=O)NCC(=O)N[C@@H](CCCCNC(=O)CO[C@H]1O[C@H](CO)[C@@H](O)[C@H](O)[C@@H]1O)C(=O)N(C)CCC(F)(F)C(F)(F)C(F)(F)C(F)(F)C(F)(F)C(F)(F)C(F)(F)C(F)(F)F)N1CCN(CC(=O)[O-])CCN(CC(=O)[O-])CCN(CC(=O)[O-])CC1.[Gd+3] (stereo partly drawn) [Gadolinium complex VIII, Gadolinium complex of 2-N-[1,4,7-tris-(carboxylatomethyl)-1,4,7,10-tetraazacyclododecane-10-N-(pentanoyl-3-aza-4-oxo-5-methyl-5-yl)]-6-N-(1-O-α-d-carbonylmethylmannopyranose)-L-lysine-[(1H,1H,2H,2H-perfluorodecyl)-methyl]-amide]
- Relaxivity R1(w) [1]: R1(w): 20.6 l/(mmol * s)
- LD50 Mouse (mice): ≧10 mmol/kg
- Body Retention 14 days [2]: 0.0%
- Elimination Half-Life of Blood [3]: 4.3 h
- Gd Content of Blood 24 Hours p.i. [3]: 0.5%
- MR signal in healthy lymph node tissue ([4]; T1-weighted turbo-spin-echo, 15 to 60 minutes p.i.): strong signal rise
- MR enhancement in the primary tumor ([4]; immediately after administration, especially in the periphery): clear enhancement
- MR signal in the arteriosclerotic plaque (arteriosclerotic plaque): strong signal rise
